In patent US20230310531A1, “TRIPTERYGIUM WILFORDII COMPOSITION FOR INHIBITING DRUG-RESISTANT CANCER, AND PREPARATION METHOD AND USE THEREOF” (HUAQIAO UNIVERSITY, priority 2022, published 2023):
Like-named read-outs stand apart in the source and are kept apart here.

Columns and labels:
Assay type in all cases: cell-based, human
H460/DDP cells = test: MTT cell proliferation inhibition, H460/DDP cells; conditions: for IC50: H460/DDP cells; for Combination index (CI): H460/DDP
Protocol: (§1) The cisplatin-resistant cells of non-small cells, lung cancer cells A549 and H1299 and human large cells, lung cancer cells H460 (that is, A549/DDP, H1299/DDP, and H460/DDP), as well as normal human lung bronchial epithelial cells 16HBE were used as cultured cells. All the cells were cultured with a PRMI-1640 complete medium at 37° C. with a CO2 concentration of 5%. Three kinds of cell models were established by culturing the above cells to a certain amount.
(§2) The three kinds of cells in a logarithmic growth phase obtained in step 1 were separately inoculated in a 96-well plate at a density of 5×10^4 cells/mL. 90 μL of the cells were added to each well, and a complete medium as a blank control group, a DMSO negative control, a TP positive control, and experimental groups with different concentrations of compounds were set up. Three replicate wells were set up in each group, and the cells were cultured in a carbon dioxide incubator for 24 h. Drugs were added in a volume of 10 μl to each well, such that final concentrations were 10 μg/ml, 20 μg/ml, 30 μg/ml, 40 μg/ml, and 50 μg/ml. After culturing for 24 h, 48 h, and 72 h, 10 μl of an MTT solution was added to each well. After incubation for 4 h, the medium in each well was aspirated, and 100 μl of DMSO was added. The culture plate was placed in a microplate reader and shaken for 5 min to dissolve crystals. The cells were put into a microplate reader for detection, and a detection wavelength was set to OD=490 nm and a reference wavelength OD=630 nm to measure an absorbance of each well.
(§3) Relative cell viability (%)=((OD value of drug experimental group−OD value of blank control group)/(OD value of negative control group−OD value of blank control group))×100%.
(§4) Relative cell inhibition rate (%)=(1−relative cell viability)×100%.
(§5) The formula for calculating a combination index (CI) was as follows: […]
(§6) In the formula, (Dx)1, (Dx)2, and (Dx)3 represented the drug doses used alone, while (D)1, (D)2, and (D)3 represented the […] contributed by the respective drugs in the combination. […] When CI<1, there was a synergistic effect; when CI>1, there was an antagonistic effect; and when CI=1, there was […].
(§7) A calculation method of IC50 was as follows: SPSS software was used for calculation: after entering the SPSS data editor, the (Variable View) was activated to define variables, and under the variable name (Name), informations were input as follows: “dose/concentration”, “inhibition rate”, “total value”. A parameter Analysis Regression Probit was selected, the “Probit Analysis” dialog box was brought up, the “Dose/Concentration” was selected into the “Covariates” column, the “Inhibition Rate” was selected into the “Response Frequency” column, and the “Total Value” was selected into the “Total Observed” column. In the “Transform” column, “Log base 10” was selected; in the “Mode 1” column, the “Probit” probability unit model was selected; and in the “Options” column, “Calculate from Data” was selected.
The experimental design, the five compounds, and a method for determining the inhibitory effect on cisplatin-resistant cells H460/DDP were the same as those in Example 1.

A549/DDP cells = test: MTT cell proliferation inhibition, A549/DDP cells; conditions: for cell inhibition rate increased, two drugs combined compared with the single drug group: TP 4 μg/ml plus compound (E 1, H 11, I 0.9, J 2, P 20 μg/ml), equal volume ratio; for IC50: compound alone
Protocol: as §1, §2, §3, §4, §5, §6, §7
When drugs were used in combination, the TP was compatible with any one or any two of the compounds E, H, I, J, and P separately in an equal volume ratio.

H1299/DDP cells = test: MTT cell proliferation inhibition, H1299/DDP cells; conditions: for Combination index (CI) / drug effect increased compared with TP alone: H1299/DDP; for drug effect increased compared with TP alone: used in combination with the TP
Protocol: as §1, §2, §3, §4, §5, §6, §7
The experimental design, the five compounds, and a method for determining the inhibitory effect on cisplatin-resistant cells H1229/DDP were the same as those in Example 1.

[1] = 48 h, compound alone (FIGS. 1A-R)
[2] = 48 h, TP 2.5 μg/ml, compound at higher dose (E 2, H 22, I 1.8, J 4, P 40 μg/ml)
[3] = 48 h, TP 2.5 μg/ml, compound at lower dose (E 1, H 11, I 0.9, J 2, P 20 μg/ml)
[4] = 48 h, TP 5 μg/ml, compound at higher dose (E 2, H 22, I 1.8, J 4, P 40 μg/ml)
[5] = 48 h, TP 5 μg/ml, compound at lower dose (E 1, H 11, I 0.9, J 2, P 20 μg/ml)
[6] = A549/DDP, TP 2.5 μg/ml, compound at higher dose (E 2, H 22, I 1.8, J 4, P 40 μg/ml)
[7] = A549/DDP, TP 2.5 μg/ml, compound at lower dose (E 1, H 11, I 0.9, J 2, P 20 μg/ml)
[8] = A549/DDP, TP 5 μg/ml, compound at higher dose (E 2, H 22, I 1.8, J 4, P 40 μg/ml)
[9] = A549/DDP, TP 5 μg/ml, compound at lower dose (E 1, H 11, I 0.9, J 2, P 20 μg/ml)
[10] = Homo sapiens, NCI-H460, 48 h, compound alone (FIGS. 1A-R), read-out: IC50
[11] = Homo sapiens, A549 cells (A549/DDP per FIG. 2 legend), 48 h, read-out: IC50
[12] = Homo sapiens, NCI-H1299, H1299/DDP, in combination with TP 2.5 μg/ml, read-out: IC50 concentrations doses
[13] = Homo sapiens, NCI-H1299, H1299/DDP, in combination with TP 5 μg/ml, read-out: IC50 concentrations doses

SMILES | IC50 (H460/DDP cells; [1]) [µg/mL] | Combination index (CI) (H460/DDP cells; [2]) | Combination index (CI) (H460/DDP cells; [3]) | Combination index (CI) (H460/DDP cells; [4]) | Combination index (CI) (H460/DDP cells; [5]) | cell inhibition rate increased, two drugs combined compared with the single drug group (A549/DDP cells; A549/DDP, 48 h) [times] | Combination index (CI) (A549/DDP cells; [6]) | Combination index (CI) (A549/DDP cells; [7]) | Combination index (CI) (A549/DDP cells; [8]) | Combination index (CI) (A549/DDP cells; [9]) | Combination index (CI) (H1299/DDP cells; [2]) | Combination index (CI) (H1299/DDP cells; [3]) | Combination index (CI) (H1299/DDP cells; [4]) | drug effect increased compared with TP alone (H1299/DDP cells) [times] | Combination index (CI) (H1299/DDP cells; [5]) | IC50 (H460/DDP cells; [10]) [µg/mL] | IC50 (A549/DDP cells; [11]) [µg/mL] | IC50 (H1299/DDP cells; [12]) [µg/mL] | IC50 (H1299/DDP cells; [13]) [µg/mL] | also measured
C[C@@]1(C(=O)O)CC[C@]2(C)CC[C@]3(C)C4=CC(=O)c5c(cc(O)c(O)c5C=O)[C@]4(C)CC[C@@]3(C)[C@@H]2C1 [Compound H, Demethylzeylasteral] | 22.31 | 0.5569 | 0.7051 | 0.4270 | 0.6318 | 1.54 | 0.7225 | 0.8749 | 0.7206 | 1.1462 | 0.9651 | 0.8151 | 0.8689 | 2.12 |  |  |  |  |  | 
CC(C)c1ccc2c(c1)CCC1C(C)(CO)C(=O)CCC21C (stereo not shown) [Compound I, Triptobenzene R] | 1.893 | 1.2499 | 1.1241 | 0.7619 | 0.9327 | 1.81 | 0.8583 | 1.3864 | 0.8288 | 0.8316 | 1.1259 | 0.7373 | 1.1503 |  | 0.8353 |  |  |  |  | inhibitory effect compared with TP (A549/DDP cells; A549/DDP, 48 h, compound alone (FIGS. 3A-E)): better inhibitory effect on cells than that of the TP; IC50 (H1299/DDP cells; H1299 cells (H1299/DDP per FIG. 2 legend), 48 h, compound alone): 8.61 µg/mL
CC(C)c1ccc2c(c1)C(=O)C[C@H]1[C@@](C)(CO)[C@@H](O)CC[C@]21C [Compound J, (3S,4S,5R,10S)-3,19-dihydroxy-7-ox-oabieta-8,11,13-triene] |  | 0.3260 | 0.5384 | 0.3064 | 0.6519 | 1.58 | 0.9025 | 0.9333 | 0.9982 | 0.6952 | 0.9855 | 0.6741 | 0.5884 |  | 0.6735 | 4.32 | 6.92 | 1.84 | 0.9 | IC50 (H460/DDP cells; Homo sapiens, NCI-H460, 48 h, compound alone (FIGS. 7A-E), read-out: IC50): 0.61 µg/mL; inhibition rate of combination with TP, times higher than TP alone (A549/DDP cells; A549/DDP, combination with TP): 1.32 times
CC(C)[C@]12O[C@H]1[C@@H]1O[C@]13[C@]1(O[C@H]1C[C@H]1C4=C(CC[C@@]13C)C(=O)OC4)[C@@H]2O [TP, triptolide, reference compound] |  |  |  |  |  |  |  |  |  |  |  |  |  |  |  | 1.97 |  |  |  | IC50 (A549/DDP cells; Homo sapiens, A549/DDP, A549DDP cells, read-out: IC50 value of A549DDP cells used as a synergistic dose): 7.83 µg/mL
CC(=O)OCC12C(OC(=O)C=Cc3ccccc3)CCC(C)(O)C13OC(C)(C)C(C(OC(C)=O)C2OC(=O)c1cccnc1)C3OC(C)=O (stereo not drawn) [Compound E, 1β-(E-cinnamoyloxy)-4a-hydroxy-5a,7β,11-triacetoxy-8β-nicotinoyloxy-dihydroagarofuran] | 1.98 | 0.6604 | 1.4669 | 0.5008 | 1.1134 | 2.01 | 1.1269 | 0.8986 | 1.1213 | 0.8688 | 1.1646 | 0.7473 | 0.8025 | 2.15 |  |  |  |  |  | IC50 (H460/DDP cells; 48 h, compound alone (FIGS. 7A-E)): 0.58 µg/mL; IC50 (A549/DDP cells; A549 cells (A549/DDP per FIG. 2 legend), 48 h): 5.03 µg/mL
CC(C)c1ccc2c(c1O)CC[C@H]1C(C)(C)[C@@H](O)CC[C@]21C [Compound P, Triptobenzene B] |  | 0.1961 | 0.2435 | 0.2976 | 0.3777 | 1.34 | 1.2660 | 1.0764 | 1.4985 | 1.1918 | 1.1079 | 1.7041 | 0.9326 |  | 0.6521 | 39.2 | 6.72 | 12 | 11 | IC50 (H1299/DDP cells; Homo sapiens, NCI-H1299, 48 h, H1299/DDP cells, 48 h, compound alone (FIGS. 5A-E), read-out: IC50): 12.8 µg/mL
